This note sets out measurements from patent publication US4520023A, “3-(3-Iodopropargyl)-benzo-1,2,3-triazin-4-ones, and their use in microbicidal agents” (Bayer Aktiengesellschaft, priority 1982, dated 1985).

In brackets after ≈: the same amount, converted by molar mass. Read-outs that look alike come from different tables or passages of the source. Some results are limits rather than exact numbers.

Assay [1] has as its system Alternaria tenuis. The assay is described as follows: Agar MIC determination, Alternaria tenuis. To be noted: Alternaria alternata, 336 h, beerwort/peptone agar, 28° C., 2 weeks. It counts as cell-based. The procedure: (§1) Active compounds according to the invention are added, in concentrations of 0.1 mg/liter to 5,000 mg/liter, to an agar prepared from beerwort and peptone. After storage at 28° C. and 60 to 70% relative atmospheric humidity for 2 weeks, the MIC is determined.

Assay [2] concerns Aspergillus niger. Nature of the assay: Agar MIC determination, Aspergillus niger. It counts as cell-based. To be noted: 336 h, beerwort/peptone agar, 28° C., 2 weeks. The procedure: as §1
The test system of assay [3] is Aureobasidium pullulans. Nature of the assay: Agar MIC determination, Aureobasidium pullulans. Particulars: 336 h, beerwort/peptone agar, 28° C., 2 weeks. It counts as cell-based. The procedure:
as §1

In assay [4] the test system is Chaetomium globosum. Nature of the assay: Agar MIC determination, Chaetomium globosum. The class given is cell-based. To be noted: 336 h, beerwort/peptone agar, 28° C., 2 weeks. The protocol:
as §1

Assay [5] has as its system Coniophora cerebella. The assay is described as follows: Agar MIC determination, Coniophora cerebella. It counts as cell-based. Particulars: 336 h, beerwort/peptone agar, 28° C., 2 weeks. The protocol:
as §1

Assay [6] deals with Lentinus tigrinus. Nature of the assay: Agar MIC determination, Lentinus tigrinus. It counts as cell-based. Particulars: 336 h, beerwort/peptone agar, 28° C., 2 weeks. The protocol:
as §1

The test system of assay [7] is Penicillium glaucum. Nature of the assay: Agar MIC determination, Penicillium glaucum. It counts as cell-based. Particulars: 336 h, beerwort/peptone agar, 28° C., 2 weeks. The procedure:
as §1

Assay [8] relates to Sclerophoma pityophila. Nature of the assay: Agar MIC determination, Sclerophoma pityophila. The class given is cell-based. Particulars: Sydowia polyspora, 336 h, beerwort/peptone agar, 28° C., 2 weeks. The protocol:
as §1

Assay [9] concerns Trichoderma viride. The assay is described as follows: Agar MIC determination, Trichoderma viride. The class given is cell-based. To be noted: 336 h, beerwort/peptone agar, 28° C., 2 weeks. The procedure:
as §1

The subject of assay [10] is slime organisms. Nature of the assay: Action against slime organisms in Allens nutrient solution. To be noted: 504 h. It counts as cell-based. The procedure:
Compounds according to the invention, dissolved in acetone, are used in concentrations of in each case 0.1 to 100 mg/liter in Allens nutrient solution (Arch. Mikrobiol. 17, 34 to 53 (1952)) containing, in 4 liters of sterile water, 0.2 g of ammonium chloride, 4.0 g of sodium nitrate, 1.0 g of dipotassium hydrogen phosphate, 0.2 g of calcium chloride, 2.05 g of magnesium sulphate, 0.02 g of iron chloride and 1% of caprolactam. Shortly beforehand, the nutrient solution is infected with slime organisms (about 10^6 germs/ml) which have been isolated from the spinning water circulations used in the preparation of polyamide.

For assay [11], the system named is fungi (Aspergillus niger, Aureobasidium pullulans, Alternaria speciales, Penicillium citrinum, Stachybotrys atra, Paecilomyces varioti, Cladosporium herbarum …). Nature of the assay: Testing of paint films for resistance to mould (Report 219, Defense Standards Laboratories). Particulars: 1.5 to 2% (or more) based on total solids content. The procedure: The test is carried out in accordance with Report 219 of the Defense Standards Laboratories Maibyrnong/Australia, as follows: smooth cardboard is coated on both sides with the product to be tested and is dried at room temperature for 8 days. For ageing, part of the coating is kept in running water at 24° C. for 24 hours, part is aerated with fresh air of 40° to 60° C. for 8 days, and part is exposed to a dry Xenon test for 110 hours. 5×5 cm sections of the test pieces thus treated are placed individually in Petri dishes on a glucose nutrient medium, and are contaminated with a spore suspension of the following fungi: Aspergillus niger, Aureobasidium pullulans, Alternaria speciales, Penicillium citrinum, Stachybotrys atra, Paecilomyces varioti, Cladosporium herbarum, Aspergillus ustus or Aspergillus flavus.
The contaminated dishes are kept at 28°-30° C. and 90-95% relative atmospheric humidity, and are evaluated after 3 weeks. Paint films are regarded as mould-resistant if the test pieces remain free from fungi after this test.
A commercially available, alkaline emulsion paint based on polyvinyl acetate is tested for mould resistance by the test method described above.

Setting [12] is: slime organisms about 10^6 germs/ml, Allens nutrient solution, room temperature, 3 weeks, read-out: MIC.

Turning to `O=c1c2ccccc2nnn1CC#CI` [Active compound A, 3-(3-Iodopropargyl)-benzo-1,2,3-triazin-4-one], the MIC in assay [1] is 5 µg/mL (≈ 16.1 µM); in assay [2], 5 µg/mL (≈ 16.1 µM); in [3], 5 µg/mL (≈ 16.1 µM); in [4], < 20 µg/mL; in assay [5], 0.5 µg/mL (≈ 1.61 µM); in [6], 2 µg/mL (≈ 6.43 µM). In addition, the MIC in [7] was determined as 5 µg/mL (≈ 16.1 µM); in [8] it was 3.5 µg/mL (≈ 11.3 µM); in [9] it was 10 µg/mL (≈ 32.1 µM); in assay [10] (read-out: MIC in mg/liter), 5 mg/L (≈ 16.1 µM). In assay [11] (alkaline polyvinyl acetate emulsion paint, 3 weeks, 28°-30° C.), the “mould resistance of paint films” value is “very good mould-resistant paint films”. In addition, in assay [11] (films first subjected to running water 24 hours, fresh air 40° to 60° C. 8 days, or dry Xenon test 110 hours), the “mould resistance of paint films after ageing” value is “very good mould-resistant paint films”.
Take `O=c1c2cc([N+](=O)[O-])ccc2nnn1CC#CI` [Active compound B, 3-(3-Iodopropargyl)-6-nitro-benzo-1,2,3-triazin-4-one]: the MIC in assay [2] is < 20 µg/mL; in assay [4], < 20 µg/mL; in assay [7], < 20 µg/mL; in assay [10] (setting [12]), 20 mg/L (≈ 56.2 µM).
As to `O=c1c2ccc(Cl)cc2nnn1CC#CI` [Active compound C, 3-(3-Iodopropargyl)-7-chloro-benzo-1,2,3-triazin-4-one], the MIC is < 20 µg/mL in [2], < 20 µg/mL in [4], < 20 µg/mL in assay [7] and 30 mg/L (≈ 86.8 µM) in [10] (setting [12]).
On to `CCCCNC(=O)OCC#CI` [Active compound D, iodopropargyl N-butyl-carbamate, reference compound], for which the MIC in assay [2] is 80 µg/mL (≈ 285 µM); in [4], 60 µg/mL (≈ 213 µM); in [7], 40 µg/mL (≈ 142 µM); in assay [9] it was 140 µg/mL (≈ 498 µM).
